Measured values: article PMC10454726 (International Journal of Molecular Sciences, 2023)

How the values were obtained:
[1] = tested on: streptozotocin-induced diabetic rats; experiment: Serum determinations (insulin, cholesterol) in streptozotocin-induced diabetic rats; assay type: in vivo, Wistar rat; conditions: 14 days, FC-114 51.3 mg/kg/day
Method: To obtain serum from each rat under anesthesia, a 10 mL blood sample was taken via cardiac puncture of the exposed heart. After being left at room temperature for 10 min, the blood samples were centrifuged at 2500 rpm (1200× g) for 10 min to obtain the serum. The resulting serum was then frozen at −70 °C until needed. Prior to usage, the serum samples were thawed at room temperature.
The diabetic animals in group 2 (untreated) were given 4% v/v aqueous EtOH solution (vehicle of treatments) in a volume of 6.5 mL/kg body weight. The other groups (3–7) received different treatments for 14 days (weeks 5 to 7). […] All of the treatments were at equimolar doses of PIO and adjusted to the weekly weight of each rat. […] The commercial PIO tablet (30 mg) was crushed in 7.5 mL of vehicle and given to each animal in 4.0 mg/mL of suspension. The FC-114 and FC-122 suspensions were created at 6.2 and 6.0 mg/mL, respectively. The commercial acarbose tablet (50 mg) was crushed in 7.5 mL of the vehicle and given to each animal in a suspension of 6.6 mg/mL. Each suspension was used within 2 days of its preparation, and the administration volume was near to 2.5 mL for each rat.
The blood determinations were carried out using different kits: glucose (1001191, Spinreact, Girona, Spain, 1045), TAG (41032, Spinreact, LIQ557), insulin (RAB09A-1EA-KC, Sigma, 11092020), total cholesterol (41020, Spinreact, LIQ384), and HDL cholesterol (1001095, Spinreact, H166). Mathematically, the c-LDL cholesterol was determined by subtracting the HDL fraction from the total cholesterol.

PTP1B = tested on: PTP1B; parameters: method as in PMID 34299651; conditions: cited from earlier work
[2] = Cytotoxic effect on Human Foreskin fibroblasts (SRB); assay type: cell-based; conditions: HFF-1 cells
Method: However, at high concentrations, they can be harmful to cells. For humans, doses less than 100 mg/day are considered safe. […] Therefore, we conducted cytotoxicity assays on Human Foreskin fibroblasts (HFF-1) and an AOT on female Wistar rats to assess their safety.
In a 96-well plate, 7000 cells per well of Human Foreskin fibroblasts (HFF-1) were cultured. […] Untreated cells were also included as a negative control. At the end of the incubation period, the cell contents were precipitated with 50 µL of a 50% aqueous solution of trichloroacetic acid (TCA) at 4 °C for 1 h. The supernatant was discarded and washed 5 times with distilled water. Afterward, the plates were allowed to dry at room temperature. The cell contents were incubated with 100 µL of a 0.04% sulforhodamine B (SRB) solution for 1 h at room temperature. The excess SRB was removed by washing with a 1% aqueous acetic acid solution. […] With the data obtained, the viability of treated cells was calculated by comparing the control without treatment. CC50 value was determined by employing BioStat Pro 5.9.8 software (AnalystSoft Inc., Brandon, FL, USA).

PTP1B1–400 = target: T1, PTP1B1–400 (Homo sapiens, UniProt P18031); experiment: Enzyme kinetic assay for PTP1B1–400 (pNPP substrate); assay type: biochemical
T1 construct: we performed an enzyme kinetic assay for PTP1B1–400
T1 sequence (P18031 1-400): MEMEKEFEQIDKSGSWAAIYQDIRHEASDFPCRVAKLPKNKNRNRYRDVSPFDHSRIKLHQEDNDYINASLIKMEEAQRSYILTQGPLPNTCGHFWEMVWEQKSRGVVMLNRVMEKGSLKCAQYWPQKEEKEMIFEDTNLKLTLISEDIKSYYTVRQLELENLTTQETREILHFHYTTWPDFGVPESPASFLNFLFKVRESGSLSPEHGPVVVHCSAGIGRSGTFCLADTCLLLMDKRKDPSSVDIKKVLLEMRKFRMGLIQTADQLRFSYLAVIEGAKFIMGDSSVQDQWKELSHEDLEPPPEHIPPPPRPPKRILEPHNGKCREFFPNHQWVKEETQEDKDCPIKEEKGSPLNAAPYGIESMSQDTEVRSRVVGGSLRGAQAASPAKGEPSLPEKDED
Excerpt: As pointed out in this paper’s introduction, we have reported the PTP1B inhibitory activity of FC-114 and FC-122 [53]. […] Nevertheless, the inhibition type of FC-122 remained unknown to date. Therefore, we performed an enzyme kinetic assay for PTP1B1–400 [59, 60, 61] using p-nitrophenyl phosphate (pNPP) as substrate at different concentrations as well as the inhibitor. Figure 2C depicts the double reciprocal plot of Lineweaver-Burk, showing the effect of FC-122 on the PTP1B activity.
The kinetic studies for PTP1B and α-glucosidase were carried out under the same conditions described in the references.

**Q.** What does the source list for `CC1(C)c2[nH]c3ccc(C(F)(F)F)cc3c2C[C@]2(C)[C@H]3C(=O)C=C4[C@@H]5C[C@@](C)(C(=O)O)CC[C@]5(C)CC[C@@]4(C)[C@]3(C)CC[C@@H]12` [FC-114]?
**A.** HDL levels [1]: without affecting; calculated LDL cholesterol [1]: decreased; serum insulin levels [1]: dramatically increasing trend; serum total cholesterol [1]: decreased; Inhibition type (PTP1B) (PTP1B): non-competitive; Ki (PTP1B): 3.9 µM; CC50 at 48 h [2]: 59.5 ± 3 µM

**Q.** For `Cc1ccc(-n2ncc3c2C(C)(C)[C@@H]2CC[C@]4(C)[C@H](C(=O)C=C5[C@@H]6C[C@@](C)(C(=O)O)CC[C@]6(C)CC[C@]54C)[C@@]2(C)C3)cc1` [FC-122], which “Inhibition type (PTP1B)” value (PTP1B1–400; Lineweaver-Burk plot) is on record?
**A.** uncompetitive

**Q.** What about the Ki (PTP1B1–400; substrate pNPP) of the same compound?
**A.** 0.44 µM

**Q.** And the CC50 at 48 h ([2]; HFF-1 human foreskin fibroblasts)?
**A.** 68.4 ± 1 µM
